Results published in patent publication US20060014704A1, “Compounds and their preparation for the treatment of Alzheimer's disease by inhibiting beta-amyloid peptide production” (priority 2004, published 2006).
“Also recorded” adds a separate entry of the source. Read-outs that look alike come from different tables or passages of the source. Blank lines part the entries; values can stand above or below the compound they belong to.

Columns and labels:
[1] = system: Aβ40 and Aβ42 generation, Neuro2a-SW cells; assay: Aβ generation in Neuro2a cells expressing human Swedish mutant APP (Neuro2a-SW); assay type: cell-based, mouse; conditions: FIG. 16
Description: FIG. 16 depicts the effects of two major metabolites of ginsenosides, including 20(S)-protopanaxatriol (PPT) and 20(S)-protopanaxadiol (PPD) on Aβ42 generation. 20(S)-panaxatriol (PT) and 20(S)-panaxadiol (PD) are the artificial derivatives of PPT and PPPD, respectively.
Ginsenosides are metabolized by human intestinal bacteria after oral administration of ginseng extract (Kobayashi K., et al., Metabolism of ginsenoside by human intestinal bacteria [II] Ginseng Review 1994; 18: 10-14; Hasegawa H., et al., Main ginseng saponin metabolites formed by intestinal bacteria. Planta Med. 1996; 62: 453-457.). Therefore, the effects of two major metabolites of ginsenosides, including 20(S)-protopanaxatriol (PPT) and 20(S)-protopanaxadiol (PPD) on Aβ42 generation were tested. 20(S)-panaxatriol (PT) and 20(S)-panaxadiol (PD) are the artificial derivatives of PPT and PPPD, respectively.

[2] = system: Aβ40 and Aβ42 production, CHO cells stably transfected with human APP695; assay: Secreted Aβ40/Aβ42 ELISA in CHO cells expressing human APP (CHO-APP cells); assay type: cell-based, Chinese hamster; set-up: key to Aβ42-lowering activity: Aβ42-lowering activity (“Yes”); no profound effects (“No”); non-determined (“ND”); Ginsenosides that affected cell viability are indicated as “Cytotoxic.”
Description: The CHO cells were treated with the indicated compounds (at 50 μg/ml) for 8 hrs. Aβ42 levels in the medium were measured by ELISA and normalized to intracellular full-length APP.
The potential effects of ginsenosides and their analogues in treating AD were examined. First, a number of ginsenosides were screened based on their effects on Aβ generation. The effects of various ginsenosides on Aβ (e.g., Aβ40 and Aβ42) production was initially accessed by incubating the Chinese hamster ovary (CHO) cells expressing human APP(CHO-APP cells) with each ginsenoside purified from unprocessed ginseng (known as “white ginseng”). These representative ginsenosides included Rb1, Rb2, Rc, Rd, Re, Re, Rg1 and Rg2 and differ in their side chains and sugar moieties.
After 8 hours of incubation, the media were collected and the levels of secreted Aβ40 and Aβ42 were determined by ELISA.

[3] = molecular target: T1, γ-secretase cleavage of APP (AICD) (Homo sapiens, UniProt P49768); assay: Cell-free generation of AICD from membrane fractions of 293 cells overexpressing APP; assay type: biochemical
T1 construct: Membrane fractions isolated from 293 cells overexpressing either APP (A), Notch-AE (B) or p75-AE (C); endogenous in cells; host or cells: 293 cells (membrane fractions); only the substrates APP, Notch-ΔE and p75-ΔE are overexpressed
Description: (§1) Membrane fractions isolated from 293 cells overexpressing either APP (A), Notch-AE (B) or p75-AE (C) and incubated in the presence of indicated compounds: Compound E (CpdE, general γ-secretase inhibitor), Rgk351, Rk1 and sulindac sulfide (SS).

γ-secretase = γ-secretase (Homo sapiens, UniProt P49768); assay: Cell-free γ-secretase assay (CHAPSO-solubilized membrane fractions, recombinant substrates, Aβ ELISA); assay type: biochemical; conditions: for Aβ42 generation in vitro: FIG. 15 (100 μM in A)
Description: (A) CHAPSO-solubilized membrane fractions were incubated with recombinant γ-secretase substrates together with the indicated compounds (at 100 μM) and the levels of Aβ42 and Aβ40 were determined by ELISA as described (27-29). (B) Dose-response of Aβ40 and Aβ42-lowering activity of Rk1 and (20S)Rg3 in a cell-free γ-secretase assay.
Next, the inhibitory effects of Rk1 and (20S)Rg3 on Aβ generation in an in vitro γ-secretase assay was studied. […] In contrast, naproxen, an NSAID without Aβ42-lowering activity, had no effects on Aβ42 production (FIG. 15A).

[4] = molecular target: T2, γ-secretase cleavage of p75 neurotrophin receptor (p75-ICD) (Homo sapiens, UniProt P49768); assay: Cell-free generation of p75-ICD from membrane fractions of 293 cells overexpressing p75-AE; assay type: biochemical
T2 construct: Membrane fractions isolated from 293 cells overexpressing either APP (A), Notch-AE (B) or p75-AE (C); endogenous in cells; host or cells: 293 cells (membrane fractions); only the substrates APP, Notch-ΔE and p75-ΔE are overexpressed
Description: as §1

[5] = molecular target: T3, γ-secretase cleavage of Notch1 (NICD) (Homo sapiens, UniProt P49768); assay: Cell-free generation of NICD from membrane fractions of 293 cells overexpressing Notch-AE; assay type: biochemical
T3 construct: Membrane fractions isolated from 293 cells overexpressing either APP (A), Notch-AE (B) or p75-AE (C); endogenous in cells; host or cells: 293 cells (membrane fractions); only the substrates APP, Notch-ΔE and p75-ΔE are overexpressed
Description: as §1

[6] = system: Aβ40 and Aβ42 production, CHO-APP/PS1 cells; assay: Secreted Aβ ELISA in CHO-APP/PS1 cells (wild-type PS1); assay type: cell-based, Chinese hamster; conditions: 50 μM, 8 hrs, FIG. 11; for secretion of Aβ42: heat-processing derived ginsenosides
Description: (§2) The effects of Rg5 on the Aβ42 generation were much smaller as compared to Rgk351 and Rk1.
(§3) FIG. 10 depicts the effects of native ginsenosides on Aβ42 production. CHO cells stably transfected with human APP695 together with either wild-type (A, CHO-APP/PS1 cells) or ΔE9 FAD mutant (B, CHO-APP/ΔE9PS1 cells) forms of PS1 were used. Cells were treated with the indicated compounds (at 50 μM) for 8 hrs. Levels of secreted Aβ40 and Aβ42 in the medium were determined by ELISA and normalized to intracellular full-length APP. In CHO-APP/PS1 cells, average Aβ amounts in control samples were 320 pM for Aβ40 and 79 pM for Aβ42. The relative levels of Aβ and Aβ42 were normalized to values obtained from non-treated and vehicle-treated cells and are shown as % to control+s.d.). One of three representative experiments are shown.
(§4) CHO-APP/PS1 (A) and CHO-APP/ΔE9PS1 (B) cells were treated with the indicated compounds at 50 μM for 8 hrs and the levels of secreted Aβ40 and Aβ42 were determined as described in FIG. 1. […] The PS1-ΔE9 FAD mutation diminished the Aβ42 response to Rk1 treatment (B).

cell viability = assay: Cell viability of treated cells; assay type: cell-based; set-up: key to affected cell viability (Cytotoxic): Aβ42-lowering activity (“Yes”); no profound effects (“No”); non-determined (“ND”); Ginsenosides that affected cell viability are indicated as “Cytotoxic.”
Description: as §4
Tables 1-3 Structure of ginsenosides utilized in the study and their effects on Aβ42 generation. They differ at the two or three side chains attached to the common triterpene backbone known as dammarane. The common structure skeleton for each group of ginsenosides is shown in the top panel. Ginsenosides that harbor Aβ42-lowering activity are indicated in the far right column of the tables: Aβ42-lowering activity (“Yes”), no profound effects (“No”), and non-determined (“ND”). Ginsenosides that affected cell viability are indicated as “Cytotoxic.” Abbreviation for carbohydrates are as follows: Glc, D-glucopyranosyl; Ara (pyr), L-arabinopyranosyl; Ara (fur), L-arabinofuranyosyl; Rha, L-rhamnopyranosyl.
Steaming ginseng at high temperature gave rise to additional ginsenosides with enhanced pharmacological activity, including (20S)Rg3, Rk1 and Rg5 (22-25). […] Aβ40 levels were not changed by treatment with any of the ginsenosides tested. The potency of Aβ42-lowering activity was highest with Rk1 and (20S)Rg3. […] These studies provide a structure-activity relationship between the chemical structures of ginsenosides and Aβ42-lowering activity, further providing the basis for designing additional Aβ42-lowering analogues as well as for defining a class of compounds that harbor Aβ42-lowering activity.

[7] = system: Aβ42 production, CHO-APP/ΔE9PS1 cells; assay: Secreted Aβ ELISA in CHO cells co-expressing human APP and FAD mutant PS1 (ΔE9, L286V); assay type: cell-based, Chinese hamster; conditions: 50 μM, 8 hrs, FIG. 11B vs 11A
Description: as §2, §3, §4

[8] = system: Aβ species, CHO-APP cells; assay: Mass spectrometric analysis of Aβ species produced from CHO-APP cells; assay type: cell-based, Chinese hamster; conditions: mass spectrometry, vs DMSO
Description: Note that treatment leads to a decrease in Aβ42 species (1-42), and elevation in both Aβ37 (1-37) and Aβ38 (1-38). Mass spectrometric analysis of Aβ species were performed as previously described (Wang R, Sweeny D, Gandy S E, Sisodia S S. The profile of soluble amyloid β-protein in cultured cell media. J. Bio. Chem. 1996; 271: 31894-31902).

[9] = system: Aβ42 production in mammalian cells; conditions: Tae-Wan Kim et al., patent application pending; cited from earlier work
[10] = system: Aβ40 and Aβ42 secretion, primary embryonic cortical neurons; assay: Aβ secretion in primary embryonic cortical neurons derived from Tg2576 transgenic mice; assay type: cell-based, mouse
Description: Treatment of Rk1 and Rg3 decreased the level of secreted Aβ40 and Aβ42.

[11] = CHO cells expressing wild-type human APP, PPT/PT

SMILES: CC1(C)CCC[C@](C)([C@H]2CC[C@]3(C)[C@@H]2[C@H](O)C[C@@H]2[C@@]4(C)CC[C@H](O)C(C)(C)[C@@H]4[C@@H](O)C[C@]23C)O1 [PT, 20(S)-panaxatriol]
- levels of Aβ42 ([1]; Neuro2a-SW): without affecting
- production of Aβ42 ([1]; Neuro2a-SW): reduced the production of Aβ42
- levels of Aβ42 [2, 11]: without affecting
- production of Aβ42 [2, 11]: reduced the production of Aβ42

- cell-free generation of AICD ([3]; listed as SS): abundantly produced
- cell-free generation of AICD ([3]; listed as sulinac sulfide): did not affect
- Aβ42 generation in vitro (γ-secretase; cell-free γ-secretase assay): potently inhibited
SMILES: CSc1ccc(/C=C2/C(C)=C(CC(=O)O)c3cc(F)ccc32)cc1 [sulindac sulfide]
- Aβ40 production ([2]; overnight treatment, FIG. 12B): slightly affected
- cell-free generation of p75-ICD ([4]; listed as SS): abundantly produced
- cell-free generation of p75-ICD ([4]; listed as sulinac sulfide): did not affect
- cell-free generation of NICD ([5]; listed as SS): abundantly produced
- cell-free generation of NICD ([5]; listed as sulinac sulfide): did not affect

SMILES: CC(C)=CCC[C@](C)(O)[C@H]1CC[C@]2(C)[C@@H]1[C@H](O)C[C@@H]1[C@@]3(C)CC[C@H](O[C@@H]4O[C@H](CO)[C@@H](O)[C@H](O)[C@H]4O)C(C)(C)[C@@H]3CC[C@]12C [Rh2]
- secretion of Aβ42 [6]: exhibited Aβ42-lowering effects
- Aβ42-lowering activity ([2]; summary of Tables 1-3): Yes
- cell viability (cell viability; 50 μM treatment): partially affected
- affected cell viability (Cytotoxic) (cell viability; summary of Tables 1-3): Cytotoxic

- Aβ generation in a cell-free γ-secretase assay (γ-secretase; FIG. 15): inhibits Aβ generation
- IC50 (γ-secretase; cell-free γ-secretase assay, FIG. 15B, read-out: IC50 for Aβ40): 27 ± 4 µM
- IC50 (γ-secretase; cell-free γ-secretase assay, FIG. 15B, read-out: IC50 for Aβ42): 26 ± 7 µM
SMILES: CC(C)=CCCC(C)(O)C1CCC2(C)C1C(O)CC1C3(C)CCC(OC4OC(CO)C(O)C(O)C4OC4OC(CO)C(O)C(O)C4O)C(C)(C)C3CCC12C [(20S)Rg3]
- potency of Aβ42-reducing activity (rank) [6]: Rk1>/=(20S)Rg3>Rg5>(20R)Rg3; also recorded: highest
- secretion of Aβ42 [6]: selectively lowered the secretion of Aβ42
- preference for Aβ42 vs. Aβ40 in cell-based assay ([2]; FIG. 6 / FIG. 12B): primarily affect Aβ42 production
- production of Aβ42 in cells ([2]; general statement): lower the production of Aβ42
- Aβ42-lowering response in PS1 ΔE9 FAD mutant cells compared to PS1 wild-type cells [7]: diminished
- Aβ37 (1-37) [8]: elevation
- Aβ38 (1-38) [8]: elevation
- Aβ42 species (1-42) [8]: decrease
- Aβ42 generation in vitro (γ-secretase; cell-free γ-secretase assay): inhibited both Aβ40 and Aβ42 with a similar potency
- Aβ40 generation in vitro (γ-secretase; cell-free γ-secretase assay, FIG. 15B): inhibited both Aβ40 and Aβ42 with a similar potency
- production of Aβ42 in mammalian cells [9]: lower the production of Aβ42
- level of secreted Aβ40 [10]: decreased
- level of secreted Aβ42 [10]: decreased

SMILES: CC1(C)CCC[C@](C)([C@H]2CC[C@]3(C)[C@@H]2[C@H](O)C[C@@H]2[C@@]4(C)CC[C@H](O)C(C)(C)[C@@H]4CC[C@]23C)O1 [PD, 20(S)-panaxadiol]
- inhibitory effects on Aβ40 generation [1]: did not confer any inhibitory effects
- inhibitory effects on Aβ42 generation [1]: did not confer any inhibitory effects
